In one experiment the target is T1, EGFR (ErbB1) (Homo sapiens, UniProt P00533).
T1 construct: purchased Invitrogen
As to the kind of experiment: Z'-LYTE kinase inhibition assay, EGFR. The settings on record: read-out: IC50 against EGFR. The format is biochemical. The method, then: Inhibitory activities of compounds against BTK, EGFR and EGFR mutants (EGFR L858R, EGFR T790M, EGFR L858R/T790M), FGFR1, FGFR2, JAK2, JAK3 and KDR were measured by Invitrogen using Z'-LYTE® Method as briefly described in the following. Test Compounds are screened in 1% DMSO (final) in the well. For 10 point titrations, 3-fold serial dilutions are conducted from the starting concentration. All ATP Solutions are diluted to a 4× working concentration in Kinase Buffer (50 mM HEPES pH 7.5, 0.01% BRIJ-35, 10 mM MgCl2, 1 mM EGTA). Peptide/Kinase Mixtures are diluted to a 2× working concentration in the appropriate Kinase Buffers as described below. (i) Peptide/Kinase Mixtures for measurement of EGFR (ErbB1): The 2× EGFR (ErbB1)/[…] mixture is prepared in 50 mM HEPES pH 7.5, 0.01% BRIJ-35, 10 mM MgCl2, 4 mM MnCl2, 1 mM EGTA, 2 mM DTT. The final 10 μL Kinase Reaction consists of 1.1-5.25 ng EGFR (ErbB1) and 2 μM […] in 50 mM HEPES pH 7.5, 0.01% BRIJ-35, 10 mM MgCl2, 2 mM MnCl2, 1 mM EGTA, 1 mM DTT. After the 1 hour Kinase Reaction incubation, 5 μL of a 1:64 dilution of Development Reagent B is added. Reaction starts by 30-second shaking of mixture consisting of 2.5 μL 4× test compound, 5 μL 2× kinase reaction mixture and 2.5 μL 4× ATP Solution on Bar-coded Corning, low volume NBS, black 384-well plate (Corning Cat. #3676). Then the mixture is incubated for 60-minute at room temperature for the kinase reaction, followed by addition of 5 μL of a 1:1024 dilution of development reagent A and 30-second plate shake. The mixture is then incubated for another 60-minute at room temperature for development reaction. Finally fluorescence is read by plate reader. To determine IC50 of a compound against EGFR, EGFR mutant and other kinases, a series of concentrations of the compound were tested for the inhibition.

The target in a further experiment is T2, KDR (VEGFR2) (Homo sapiens, UniProt P35968).
T2 construct: purchased Invitrogen
As to the kind of experiment: Z'-LYTE kinase inhibition assay, KDR. In kind it is biochemical. Conditions: read-out: IC50 against KDR. The method, then: (§1) Inhibitory activities of compounds against BTK, EGFR and EGFR mutants (EGFR L858R, EGFR T790M, EGFR L858R/T790M), FGFR1, FGFR2, JAK2, JAK3 and KDR were measured by Invitrogen using Z′-LYTE® Method as briefly described in the following.
(§2) Test Compounds are screened in 1% DMSO (final) in the well. For 10 point titrations, 3-fold serial dilutions are conducted from the starting concentration. All ATP Solutions are diluted to a 4× working concentration in Kinase Buffer (50 mM HEPES pH 7.5, 0.01% BRIJ-35, 10 mM MgCl2, 1 mM EGTA). Peptide/Kinase Mixtures are diluted to a 2× working concentration in the appropriate Kinase Buffers as described below.
(v) Peptide/Kinase Mixtures for measurement of KDR (VEGFR2):
The 2× KDR (VEGFR2)/Tyr 01 mixture is prepared in 50 mM HEPES pH 7.5, 0.01% BRIJ-35, 10 mM MgCl2, 1 mM EGTA. The final 10 μL Kinase Reaction consists of 0.5-11.7 ng KDR (VEGFR2) and 2 μM Tyr Olin 50 mM HEPES pH 7.5, 0.01% BRIJ-35, 10 mM MgCl2, 1 mM EGTA. After the 1 hour Kinase Reaction incubation, 5 μL of a 1:256 dilution of Development Reagent B is added.
(§3) Reaction starts by 30-second shaking of mixture consisting of 2.5 μL 4× test compound, 5 μL 2× kinase reaction mixture and 2.5 μL 4× ATP Solution on Bar-coded Corning, low volume NBS, black 384-well plate (Corning Cat. #3676). Then the mixture is incubated for 60-minute at room temperature for the kinase reaction, followed by addition of 5 μL of a 1:1024 dilution of development reagent A and 30-second plate shake. The mixture is then incubated for another 60-minute at room temperature for development reaction. Finally fluorescence is read by plate reader.
(§4) To determine IC50 of a compound against EGFR, EGFR mutant and other kinases, a series of concentrations of the compound were tested for the inhibition. […] The scale utilized in Table 4 is as follows: +++ less than 100 nM, ++100-500 nM and + greater than 500 nM.

The next experiment deals with T3, FGFR1 (Homo sapiens, UniProt P11362).
T3 construct: purchased Invitrogen
As to the kind of experiment: Z'-LYTE kinase inhibition assay, FGFR1. The format is biochemical. The settings on record: read-out: IC50 against FGFR1. The method, then: as §1, §2
(v) Peptide/Kinase Mixtures for measurement of FGFR1:
The 2× FGFR1/Tyr 04 mixture is prepared in 50 mM HEPES pH 7.5, 0.01% BRIJ-35, 10 mM MgCl2, 4 mM MnCl2, 1 mM EGTA, 2 mM DTT. The final 10 μL Kinase Reaction consists of 0.41-3.5 ng FGFR1 and 2 μM Tyr 04 in 50 mM HEPES pH 7.5, 0.01% BRIJ-35, 10 mM MgCl2, 2 mM MnCl2, 1 mM EGTA, 1 mM DTT. After the 1 hour Kinase Reaction incubation, 5 μL of a 1:64 dilution of Development Reagent B is added.
as §3, §4

The next experiment deals with T4, FGFR2 (Homo sapiens, UniProt P21802).
T4 construct: purchased Invitrogen
As to the kind of experiment: Z'-LYTE kinase inhibition assay, FGFR2. In kind it is biochemical. The settings on record: read-out: IC50 against FGFR2. Here is the method: as §1, §2
(v) Peptide/Kinase Mixtures for measurement of FGFR2:
The 2× FGFR2/Tyr 04 mixture is prepared in 50 mM HEPES pH 7.5, 0.01% BRIJ-35, 10 mM MgCl2, 4 mM MnCl2, 1 mM EGTA, 2 mM DTT. The final 10 μL Kinase Reaction consists of 0.19-2.36 ng FGFR2 and 2 μM Tyr 04 in 50 mM HEPES pH 7.5, 0.01% BRIJ-35, 10 mM MgCl2, 2 mM MnCl2, 1 mM EGTA, 1 mM DTT. After the 1 hour Kinase Reaction incubation, 5 μL of a 1:64 dilution of Development Reagent B is added.
as §3, §4

The next experiment concerns H1299 cells. As to the kind of experiment: Inhibition of cancer cell growth, MTT assay, H1299. Conditions: Homo sapiens, NCI-H1299, 72 h, read-out: IC50 in H1299 cells. Background: Tetrazolium assays rely on reduction of a dye to a coloured formazan, in cell work by metabolically active cells.

As usually defined, the IC50 is the concentration at which inhibition is half-maximal.

T4 sequence (P21802 22-821): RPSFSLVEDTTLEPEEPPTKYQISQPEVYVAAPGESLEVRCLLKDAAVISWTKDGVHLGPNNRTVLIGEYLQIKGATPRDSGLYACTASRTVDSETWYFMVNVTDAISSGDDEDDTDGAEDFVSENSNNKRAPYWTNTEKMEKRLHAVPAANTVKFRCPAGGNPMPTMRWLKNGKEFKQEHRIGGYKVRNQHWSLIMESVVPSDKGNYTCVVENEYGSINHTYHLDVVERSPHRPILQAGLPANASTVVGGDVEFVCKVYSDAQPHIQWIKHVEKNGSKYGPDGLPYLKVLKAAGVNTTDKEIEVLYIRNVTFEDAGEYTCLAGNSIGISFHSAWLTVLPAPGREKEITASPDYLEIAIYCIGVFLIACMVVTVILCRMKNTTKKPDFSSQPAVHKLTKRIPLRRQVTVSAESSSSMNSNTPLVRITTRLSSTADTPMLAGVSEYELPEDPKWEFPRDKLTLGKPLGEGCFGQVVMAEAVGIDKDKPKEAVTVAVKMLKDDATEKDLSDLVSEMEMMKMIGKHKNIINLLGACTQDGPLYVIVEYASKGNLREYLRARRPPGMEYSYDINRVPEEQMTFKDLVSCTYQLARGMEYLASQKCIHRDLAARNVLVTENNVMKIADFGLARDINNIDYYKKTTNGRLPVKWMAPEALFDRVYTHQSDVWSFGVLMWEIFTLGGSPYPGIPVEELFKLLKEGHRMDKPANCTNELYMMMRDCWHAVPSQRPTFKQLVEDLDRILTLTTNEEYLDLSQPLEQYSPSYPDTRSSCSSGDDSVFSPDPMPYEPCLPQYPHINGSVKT
T1 sequence (P00533 25-1210): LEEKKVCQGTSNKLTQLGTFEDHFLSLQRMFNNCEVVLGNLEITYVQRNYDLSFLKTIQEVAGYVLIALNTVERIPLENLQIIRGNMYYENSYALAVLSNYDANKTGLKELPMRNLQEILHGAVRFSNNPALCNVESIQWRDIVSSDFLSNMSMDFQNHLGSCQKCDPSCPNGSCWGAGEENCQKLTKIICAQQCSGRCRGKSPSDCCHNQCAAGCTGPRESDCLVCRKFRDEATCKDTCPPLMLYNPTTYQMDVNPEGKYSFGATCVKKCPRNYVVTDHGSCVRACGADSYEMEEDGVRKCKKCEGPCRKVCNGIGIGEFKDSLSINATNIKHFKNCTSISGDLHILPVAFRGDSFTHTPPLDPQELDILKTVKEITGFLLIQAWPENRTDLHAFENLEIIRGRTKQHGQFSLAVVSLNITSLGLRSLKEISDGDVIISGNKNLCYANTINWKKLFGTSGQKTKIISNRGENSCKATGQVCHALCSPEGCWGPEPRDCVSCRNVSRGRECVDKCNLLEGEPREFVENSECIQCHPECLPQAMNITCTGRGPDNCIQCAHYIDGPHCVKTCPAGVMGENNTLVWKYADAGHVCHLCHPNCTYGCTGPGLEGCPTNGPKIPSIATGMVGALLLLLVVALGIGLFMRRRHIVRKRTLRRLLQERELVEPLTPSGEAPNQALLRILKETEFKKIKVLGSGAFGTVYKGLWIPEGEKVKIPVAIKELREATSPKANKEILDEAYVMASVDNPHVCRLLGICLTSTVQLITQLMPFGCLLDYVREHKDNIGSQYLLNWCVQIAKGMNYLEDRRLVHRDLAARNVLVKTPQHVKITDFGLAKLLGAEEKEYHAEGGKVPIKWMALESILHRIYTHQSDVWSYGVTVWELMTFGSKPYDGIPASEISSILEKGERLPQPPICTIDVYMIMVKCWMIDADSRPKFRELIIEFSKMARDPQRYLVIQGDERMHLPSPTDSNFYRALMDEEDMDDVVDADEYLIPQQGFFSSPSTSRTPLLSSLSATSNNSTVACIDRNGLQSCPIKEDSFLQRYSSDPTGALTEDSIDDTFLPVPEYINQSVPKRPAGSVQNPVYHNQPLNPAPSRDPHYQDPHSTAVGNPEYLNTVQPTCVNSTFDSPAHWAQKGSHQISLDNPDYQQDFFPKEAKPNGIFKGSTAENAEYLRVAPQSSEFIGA
T3 sequence (P11362 22-822): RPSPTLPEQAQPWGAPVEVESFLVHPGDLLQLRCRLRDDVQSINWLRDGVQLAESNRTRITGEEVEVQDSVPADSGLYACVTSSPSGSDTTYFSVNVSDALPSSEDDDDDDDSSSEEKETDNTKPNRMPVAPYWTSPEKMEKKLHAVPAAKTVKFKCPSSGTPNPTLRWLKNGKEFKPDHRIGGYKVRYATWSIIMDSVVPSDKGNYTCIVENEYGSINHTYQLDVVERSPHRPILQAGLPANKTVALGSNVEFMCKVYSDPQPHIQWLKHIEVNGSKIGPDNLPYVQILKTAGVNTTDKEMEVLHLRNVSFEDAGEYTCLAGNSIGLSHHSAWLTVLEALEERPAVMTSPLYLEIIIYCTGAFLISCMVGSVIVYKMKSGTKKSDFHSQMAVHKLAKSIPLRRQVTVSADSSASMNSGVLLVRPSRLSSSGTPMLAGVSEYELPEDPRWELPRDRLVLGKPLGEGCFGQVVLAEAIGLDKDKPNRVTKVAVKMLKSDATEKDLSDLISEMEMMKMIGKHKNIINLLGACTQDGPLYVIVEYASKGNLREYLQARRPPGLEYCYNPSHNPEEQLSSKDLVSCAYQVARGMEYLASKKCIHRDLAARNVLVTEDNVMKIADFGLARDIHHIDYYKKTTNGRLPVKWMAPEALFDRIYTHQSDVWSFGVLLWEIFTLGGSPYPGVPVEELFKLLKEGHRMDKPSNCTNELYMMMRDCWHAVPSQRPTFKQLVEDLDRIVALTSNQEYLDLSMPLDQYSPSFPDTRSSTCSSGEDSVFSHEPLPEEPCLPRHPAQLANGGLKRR
T2 sequence (P35968 20-1356): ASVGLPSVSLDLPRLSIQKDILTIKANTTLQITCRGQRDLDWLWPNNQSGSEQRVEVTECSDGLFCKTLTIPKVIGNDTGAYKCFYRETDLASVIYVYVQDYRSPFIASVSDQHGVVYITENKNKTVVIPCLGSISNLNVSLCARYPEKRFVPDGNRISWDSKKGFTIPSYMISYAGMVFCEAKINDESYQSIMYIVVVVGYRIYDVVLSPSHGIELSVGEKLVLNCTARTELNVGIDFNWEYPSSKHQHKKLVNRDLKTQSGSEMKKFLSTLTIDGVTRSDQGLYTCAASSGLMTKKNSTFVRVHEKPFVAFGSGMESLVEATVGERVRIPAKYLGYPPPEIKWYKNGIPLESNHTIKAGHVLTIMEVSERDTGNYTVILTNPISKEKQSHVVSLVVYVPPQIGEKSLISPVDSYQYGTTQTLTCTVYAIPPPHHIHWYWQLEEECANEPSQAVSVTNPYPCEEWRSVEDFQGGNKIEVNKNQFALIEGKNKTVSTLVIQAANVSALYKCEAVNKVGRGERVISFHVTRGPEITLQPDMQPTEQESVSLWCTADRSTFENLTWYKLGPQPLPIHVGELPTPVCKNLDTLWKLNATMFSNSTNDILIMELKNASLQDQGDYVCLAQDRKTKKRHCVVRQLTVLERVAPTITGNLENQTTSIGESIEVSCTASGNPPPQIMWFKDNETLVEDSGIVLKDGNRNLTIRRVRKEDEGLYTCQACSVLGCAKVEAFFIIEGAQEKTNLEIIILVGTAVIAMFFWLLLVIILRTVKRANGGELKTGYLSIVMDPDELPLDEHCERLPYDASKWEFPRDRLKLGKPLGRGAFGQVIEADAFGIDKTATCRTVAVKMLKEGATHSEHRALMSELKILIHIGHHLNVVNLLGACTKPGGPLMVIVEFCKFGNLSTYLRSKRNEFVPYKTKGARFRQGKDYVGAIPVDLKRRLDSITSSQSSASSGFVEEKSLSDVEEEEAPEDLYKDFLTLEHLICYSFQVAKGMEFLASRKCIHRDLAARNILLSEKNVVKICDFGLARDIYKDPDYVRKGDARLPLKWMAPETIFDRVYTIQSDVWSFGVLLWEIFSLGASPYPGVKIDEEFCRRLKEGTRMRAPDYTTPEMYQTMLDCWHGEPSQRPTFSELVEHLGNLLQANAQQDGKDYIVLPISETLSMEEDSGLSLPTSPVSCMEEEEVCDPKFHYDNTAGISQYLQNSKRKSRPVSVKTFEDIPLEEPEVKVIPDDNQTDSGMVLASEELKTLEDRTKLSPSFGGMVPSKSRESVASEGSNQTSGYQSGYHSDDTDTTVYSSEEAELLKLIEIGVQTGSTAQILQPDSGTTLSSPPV
Experimental for H1299 cells: Inhibition of cell growth by compounds was measured using MTT assay (Mosmann, T., Journal of Immunological Methods, 1983, 65, 55-63). Tumor cell lines were purchased from ATCC (American Type Culture Collection, Manassas, Va.). All cell lines were maintained in RPMI 1640 (Hyclone) supplemented with 10% fetal bovine serum (FBS, Hyclone), glutamine (2 mM, Hyclone), and antibiotics (penicillin 100 U/mL and streptomycin 50 μg/mL) at 37° C. in a humidified atmosphere of 5% CO2 in air. Taxol (as a positive control, Sigma) and compounds were dissolved in DMSO (Sigma), and the final concentration of DMSO in the medium was 1%. Tumor cells were plated in 96-well plates at densities of about 4000 cells/well of a 96-well plate and allowed to adhere/grow for 24 h. They were then treated with various concentrations of drug for 72 h. […] The number of cells remaining after 72 h was compared to the number of viable cells at the time of compound addition by measuring the absorbance at 570 nm, allowing for the calculation of growth inhibition.
All concentrations of compounds were tested in triplicate and controls were averaged over 4 wells. IC50 was calculated by plotting the concentration of compound vs the percentage of inhibition in treated wells using GraphPad Prism 5. […]

As to `C=CC(=O)Nc1cccc(-c2cccc3cnc(Nc4ccc(N5CCN(C(C)=O)CC5)cc4)nc23)c1` [Example C032, N-(3-(2-((4-(4-acetylpiperazin-1-yl)phenyl)amino)quinazolin-8-yl)phenyl)acrylamide], the IC50 on EGFR (ErbB1) was 100 to 500 nM.

On to `C=CC(=O)Nc1cccc(-c2cccc3cnc(Nc4ccc(N5CCN(C)CC5)cc4F)nc23)c1` [Example C044, N-(3-(2-((2-fluoro-4-(4-methylpiperazin-1-yl)phenyl)amino)quinazolin-8-yl)phenyl)acrylamide], for which the IC50 at KDR (VEGFR2) and on FGFR1 was 100 to 500 nM each time.

On to `C=CC(=O)Nc1cccc(-c2cccc3cnc(Nc4ccc(N5CCN(CCO)CC5)cc4)nc23)c1` [Example C059, N-(3-(2-((4-(4-(2-hydroxyethyl)piperazin-1-yl)phenyl)amino)quinazolin-8-yl)phenyl)acrylamide], for which the IC50 at FGFR2 lay within 100 to 500 nM. On to `C=CC(=O)Nc1cccc(-c2cccc3cnc(Nc4ccc(OC5CCN(C)CC5F)cc4)nc23)c1` (centres unmarked) [Example C079, N-(3-(2-((4-((3-fluoro-1-methylpiperidin-4-yl)oxy)phenyl)amino)quinazolin-8-yl)phenyl)acrylamide], for which the IC50 at EGFR (ErbB1) lay within 100 to 500 nM. Regarding `C=CC(=O)Nc1cccc(-c2cccc3cnc(Nc4ccc(N5CCN(C)CC5)c(C(N)=O)c4)nc23)c1` [Example C085, 5-((8-(3-acrylamidophenyl)quinazolin-2-yl)amino)-2-(4-methylpiperazin-1-yl)benzamide], the IC50 at EGFR (ErbB1) lay in the range of 100 to 500 nM. For `C=CC(=O)Nc1cccc(-c2cccc3cnc(Nc4ccc(OCCO)cc4)nc23)c1` [Example C108, N-(3-(2-((4-(2-hydroxyethoxy)phenyl)amino)quinazolin-8-yl)phenyl)acrylamide], the IC50 at EGFR (ErbB1) fell in the range of 100 to 500 nM.

On to `C=CC(=O)Nc1cccc(-c2cccc3cnc(Nc4cc(F)c(N5CCN(C)CC5)c(F)c4)nc23)c1` [Example C146, N-(3-(2-((3,5-difluoro-4-(4-methylpiperazin-1-yl)phenyl)amino)quinazolin-8-yl)phenyl)acrylamide], for which, in the experiment on H1299 cells, the IC50 was below 100 nM. For the compound `C=CC(=O)Nc1cccc(-c2cccc3cnc(Nc4ccc(N5CCN(CCO)CC5)cc4F)nc23)c1` [Example C147, N-(3-(2-((2-fluoro-4-(4-(2-hydroxyethyl)piperazin-1-yl)phenyl)amino)quinazolin-8-yl)phenyl)acrylamide], the IC50 at KDR (VEGFR2), at FGFR1 and at FGFR2 was 100 to 500 nM each time. As for `C=CC(=O)Nc1cccc(-c2cccc3cnc(Nc4ccc(N5CCN(CCO)CC5)c(F)c4F)nc23)c1` [Example C151, N-(3-(2-((2,3-difluoro-4-(4-(2-hydroxyethyl)piperazin-1-yl)phenyl)amino)quinazolin-8-yl)phenyl)acrylamide], the IC50 at KDR (VEGFR2), at FGFR1 and on FGFR2 was 100 to 500 nM throughout.

(Values after patent publication US20170050936A1, “CERTAIN CHEMICAL ENTITIES, COMPOSITIONS, AND METHODS” (NEUPHARMA, INC., priority 2013, published 2017).)
